Reference: PubChem BioAssay (NCI)
“And” between values parts separate entries of the source, which are not always exact repeats. Identical values can stand only once.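 48-hour exposure; five concentrations; linearly interpolated endpoints. GI50 = concentration required for 50% inhibition of growth. TGI is the concentration that stops growth completely.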

Legend:
Experiment in all cases: NCI-60 cell line screen, 48 h
EKVX NSCLC = tested on: EKVX NSCLC
K-562 leukemia = tested on: K-562 leukemia
KM12 colon = tested on: KM12 colon
M14 melanoma = tested on: M14 melanoma
NCI-H23 lung = tested on: NCI-H23 lung
NCI/ADR-RES ovarian = tested on: NCI/ADR-RES ovarian
PC-3 prostate = tested on: PC-3 prostate
SF-268 CNS = tested on: SF-268 CNS
SK-MEL-2 melanoma = tested on: SK-MEL-2 melanoma
SK-MEL-28 melanoma = tested on: SK-MEL-28 melanoma

SMILES	GI50 (EKVX NSCLC) [µM]	TGI (EKVX NSCLC) [µM]	GI50 (K-562 leukemia) [nM]	TGI (K-562 leukemia) [µM]	GI50 (KM12 colon) [nM]	TGI (KM12 colon) [µM]	GI50 (M14 melanoma) [nM]	TGI (M14 melanoma) [µM]	GI50 (NCI-H23 lung) [nM]	TGI (NCI-H23 lung) [µM]	GI50 (NCI/ADR-RES ovarian) [nM]	TGI (NCI/ADR-RES ovarian) [µM]	GI50 (PC-3 prostate) [nM]	TGI (PC-3 prostate) [µM]	GI50 (SF-268 CNS) [nM]	TGI (SF-268 CNS) [µM]	GI50 (SK-MEL-2 melanoma) [µM]	TGI (SK-MEL-2 melanoma)	GI50 (SK-MEL-28 melanoma) [µM]	TGI (SK-MEL-28 melanoma) [µM]
COc1cc(/C=C/C(=O)c2cccc(-n3cc(-c4ccc(Cl)cc4)[nH]c3=O)c2)ccc1O	6.6	> 95.2	2360	> 26.4	1600	3.42	3510	15.2	4430	24.4	2780	> 30.5	1950	6.97	2930	12.6	3.61	14.4 µM	2.07	4.18
CSc1nc(NC2OC(COC(C)=O)C(OC(C)=O)C(OC(C)=O)C2OC(C)=O)c(N=CC=Nc2c(NC3OC(COC(C)=O)C(OC(C)=O)C(OC(C)=O)C3OC(C)=O)nc(SC)n(C)c2=O)c(=O)n1C (configuration not stated)	> 50	> 100	> 50000	> 100	> 50000	> 100	> 50000	> 50	> 50000	> 100	> 50000	> 100	> 50000	> 100	> 50000	> 100	25.2	50 µM and > 96 µM	> 50	> 100
CN(C)C(=S)Sc1ccc([N+](=O)[O-])cc1[N+](=O)[O-]	5.29	19.7	1060	25.6	2810	12.7	2500	9.46	2930	11.6	4730	16.8	2170	13.3	3320	15.4	4.21	9.86 µM	6.75	18.4
COC(=O)C1=CN(CC2=CC(=O)C(C)=CC2=O)C=C(C(=O)OC)C1c1cccc(OC)c1	12.2	27.2	3840	> 35.6	8340	26.9	18600	35.6	18400	53.5	12400	60.2	8000	29.9	12100	30.8	24.3	> 100 µM	25	79
O=S(=O)(Nc1ccc(Cl)cc1Cl)c1ccc(-c2cnc(C3CC3)o2)cc1	2.56	88.6	382	> 100	485	25.9	473	> 88.2	1400	55.5	510	17.5	612	> 53.2	2850	72.9	3.03	42.2 µM	3.28	> 78.8
COC12C(COC(N)=O)C3=C(C(=O)C(C)=C(N)C3=O)N1CC1C2N1C (configuration not stated)	–	60.3	–	179	–	43.7	–	22.7	–	17.6	–	268	–	61.6	–	47	–	31.2 µM	–	57.4
COc1cc2c3c(c1OC)-c1cc4c(cc1CC3(C#N)N(C(=O)c1ccccc1)CC2)OCO4 (configuration not stated)	–	> 100	–	> 100	–	> 100	–	> 100	–	54.1	–	> 100	–	> 100	–	> 91	–	> 100 µM	–	> 100
Cc1ccc(Nc2oc(-c3ccccc3)nc2[P+](c2ccccc2)(c2ccccc2)c2ccccc2)cc1	0.616	2.38	324	1.44	861	2.46	728	2.11	458	2.08	1480	3.1	585	2.01	1560	4.9	0.625	1.85 µM	1.19	2.55
O=C1CCC/C=C\C[C@H]2C=CC(=O)/C2=C/C[C@H](C/C=C\CC(F)(F)F)O1	0.893	3.42	503	2.6	299	0.635	493	1.7	698	3.67	627	16.7	574	2.71	522	2.12	0.365	1.19 µM	0.571	2.25
C=CCc1ccc(O)c(-c2ccc(O)c(CC=C)c2)c1	7.11	23.3	8540	> 46.1	13600	34	21400	48.4	16300	34.4	15300	33.9	15200	33.2	10800	28	14.5	33 µM	16.6	31
CN1CC[C@@H](c2c(O)cc(O)c3c(=O)cc(-c4ccc(C(F)(F)F)cc4Cl)oc23)[C@@H]1CO	13.9	37.5	29800	85.6	13700	30.4	17800	33.8	15200	37.3	19100	51.6	19000	44.5	15200	39.6	18.1	41 µM	14.4	32.2
CC1(Br)Cc2ccccc2C1=O (configuration not stated)	–	11.2	571	–	–	25.8	1080	4.4	1880	5.38	–	> 100	–	22.5	–	20.2	–	24.2 µM	–	7.68
Cn1c(Nc2ccc(C(F)(F)F)cc2)nc2cc(Oc3ccnc(-c4ncc(C(F)(F)F)[nH]4)c3)ccc21	2.33	19.1	1760	25	1300	12.5	33.8	1.33	310	7.8	1640	13.4	1530	17.2	966	14.5	0.0387	0.728 µM	0.126	4.79
